Experiments:
sea lice [1] = assay: Injection of hexaflumuron in multivalent vaccine formulations, sea lice counts after sea water transfer (Example 10); type: in vivo, salmon (Salmo salar)
Description: (§1) The treatment dosage was 9 mg hexaflumuron per kg fish per day for 10 days. This is indicated by "Groups/Timepoints" in the figure; • Figure 2 relates to the trial in Example 2 that was carried out on Atlantic salmon (Salmo salar). […] The treatment dosage varied between 3 - 9 mg hexaflumuron and 9- 12 mg fluazuron per kg fish per day for 7 days. This is indicated by "Groups/Timepoints" in the diagram. […] The treated groups are compared to an untreated control group. The treatment dosage was 4 mg hexaflumuron per kg fish per day for 5 days. This is indicated by "Groups/Timepoints" in the figure. Cage 2 = controls, Cage 4-6 = treated groups, 16.6.97 = time point for sea transfer and 5.8.97= controls treated by bathing with deltamethrin; • Figure 4 relates to the trial described in Example 5, which was carried out on sea trout (Salmo trutta). […] The treated groups are compared with an untreated control group. The dosage for oral treatment was 4 mg hexaflumuron per kilo fish per day for 5 days, and 5 ppm hexaflumuron as a 30 minute bath treatment. This is indicated by "Groups/Timepoints" in the figure. Cage 1.4 = Controls, cage 1.3 = Oral treatment, cage 1.2 = Bath treatment. […] The treated groups are compared with an untreated control group, and one group that has been treated orally with teflubenzuron (10 mg/kg of teflubenzuron per kg fish per day for 7 days). The dosage for oral treatment was 5.6 mg hexaflumuron per kg fish per day for 7 days, and 5 ppm hexaflumuron as a 30 minute bath treatment. […] End of treatment: 22.10.97, Sea transfer: 23.10.97. T1 = 3 weeks post end of treatment, T2 = 5 weeks post end of treatment, T3 = 9 weeks post end of treatment, T4 = 12 weeks post end of treatment; • Figure 6 relates to the trial in Example 6 at time points 4-6, with the same trial parameters as for Figure 5. […]
Following transfer to sea water, the fish were exposed to natural sea lice infestation. Every three weeks lice were counted on 10 fish of each group to assess if the number of lice between the various groups differed. […]

sea lice [2] = assay: Oral hexaflumuron treatment of naturally sea lice infected salmon in sea cages (Example 1); type: in vivo, Atlantic salmon (Salmo salar); conditions: 9 mg per kg each day for 10 days
Description: The treatment dosage was 9 mg hexaflumuron per kg fish per day for 10 days. This is indicated by "Groups/Timepoints" in the figure; • Figure 2 relates to the trial in Example 2 that was carried out on Atlantic salmon (Salmo salar). […] The treatment dosage varied between 3 - 9 mg hexaflumuron and 9- 12 mg fluazuron per kg fish per day for 7 days. This is indicated by "Groups/Timepoints" in the diagram. […] The treated groups are compared to an untreated control group. The treatment dosage was 4 mg hexaflumuron per kg fish per day for 5 days. This is indicated by "Groups/Timepoints" in the figure. Cage 2 = controls, Cage 4-6 = treated groups, 16.6.97 = time point for sea transfer and 5.8.97= controls treated by bathing with deltamethrin; • Figure 4 relates to the trial described in Example 5, which was carried out on sea trout (Salmo trutta). […] The treated groups are compared with an untreated control group. The dosage for oral treatment was 4 mg hexaflumuron per kilo fish per day for 5 days, and 5 ppm hexaflumuron as a 30 minute bath treatment. This is indicated by "Groups/Timepoints" in the figure. Cage 1.4 = Controls, cage 1.3 = Oral treatment, cage 1.2 = Bath treatment. […] The treated groups are compared with an untreated control group, and one group that has been treated orally with teflubenzuron (10 mg/kg of teflubenzuron per kg fish per day for 7 days). […]

sea lice [3] = assay: Oral or bath treatment in freshwater before sea transfer, sea lice counts after natural infection (Example 5); type: in vivo, sea trout (Salmo trutta); conditions: oral 4 mg per kg daily for 5 days or bath 5 ppm for 30 minutes
Description: as §1
About 300 sea trout (Salmo trutta) of an average weight of 160 grams were divided into three groups of 100 fish each. […] Lice from 6-10 fish from each cage were counted every third week to assess whether there was any difference in the number of lice between the cages. […]

sea lice [4] = assay: Oral treatment (coated feed / Akvaletter) of naturally sea lice infected salmon in minicages (Example 2); type: in vivo, Atlantic salmon (Salmo salar)
Description: The treatment dosage was 9 mg hexaflumuron per kg fish per day for 10 days. This is indicated by "Groups/Timepoints" in the figure; • Figure 2 relates to the trial in Example 2 that was carried out on Atlantic salmon (Salmo salar). […] The treatment dosage varied between 3 - 9 mg hexaflumuron and 9- 12 mg fluazuron per kg fish per day for 7 days. This is indicated by "Groups/Timepoints" in the diagram. […] The treated groups are compared to an untreated control group. The treatment dosage was 4 mg hexaflumuron per kg fish per day for 5 days. This is indicated by "Groups/Timepoints" in the figure. Cage 2 = controls, Cage 4-6 = treated groups, 16.6.97 = time point for sea transfer and 5.8.97= controls treated by bathing with deltamethrin; • Figure 4 relates to the trial described in Example 5, which was carried out on sea trout (Salmo trutta). […] The treated groups are compared with an untreated control group. The dosage for oral treatment was 4 mg hexaflumuron per kilo fish per day for 5 days, and 5 ppm hexaflumuron as a 30 minute bath treatment. This is indicated by "Groups/Timepoints" in the figure. Cage 1.4 = Controls, cage 1.3 = Oral treatment, cage 1.2 = Bath treatment. […] The treated groups are compared with an untreated control group, and one group that has been treated orally with teflubenzuron (10 mg/kg of teflubenzuron per kg fish per day for 7 days). The dosage for oral treatment was 5.6 mg hexaflumuron per kg fish per day for 7 days, and 5 ppm hexaflumuron as a 30 minute bath treatment. […] End of treatment: 22.10.97, Sea transfer: 23.10.97. T1 = 3 weeks post end of treatment, T2 = 5 weeks post end of treatment, T3 = 9 weeks post end of treatment, T4 = 12 weeks post end of treatment; • Figure 6 relates to the trial in Example 6 at time points 4-6, with the same trial parameters as for Figure 5. T5 = 15 weeks post end of treatment, T6 = 17 weeks post end of treatment. Cage 3 and 4 were treated by bath with deltamethrin after sea lice counting at T4 (12.01.98); • Figure 7 relates to the trial described in Example 7 where salmon were injected on 17.12.97 with two formulations (groups L and R, respectively) of hexaflumuron and a vaccine formulation without hexaflumuron (control). […] The vaccinated fish was transferred to sea water on 09.01.98; • Figure 8 summarises the trial of Example 8 where salmon smolts were injected with 9 different active substances on 08.07.98. Only results for Moxidectin (Mox.), Lufenuron (Luf.) and hexaflumuron in Apoject 1-Fural (Hex.Apo) and in animal oil (Hex.oil) are shown, and • Figure 9 summarises the trial described in Example 10 where salmon were injected on 03.12.97 with 3 different formulations of hexaflumuron (Hexa 1, Hexa 2 and Hexa 3). The fish were transferred to sea water at T0. […]

[5] = injected in vaccine formulations

## O=C(NC(=O)c1c(F)cccc1F)Nc1cc(Cl)c(OC(F)(F)C(F)F)c(Cl)c1 [hexaflumuron]
Sea lice [1]; 9 and 12 weeks after sea water transfer (T3 and T4), 3 formulations, 25 mg per ml vaccine
  number of sea lice versus control: significantly lower
Sea lice [1]; [5]
  protection against recurrent infestation after injection: ≥ 18 weeks
  protection against recurrent infestation after sea water transfer: at least 12 weeks
Sea lice [2]
  reduction of sensitive chalimus and pre-adult stages: about 95%
Sea lice [2]; medicated pellets, 7.6 - 9.4°C
  reduced the number of lice as compared to the control group: more than 90%
Sea lice [3]
  protection after transfer to sea: at least 8 weeks
Sea lice [3]; 2, 5 and 8 weeks after sea transfer
  number of lice larger than Chalimus II versus control: significantly lower
Sea lice [4]; all groups treated with hexaflumuron, 3.0-9.0 mg per day, 7 days, 8.0 - 9.8°C
  reduced the number of lice as compared to the control treatment: more than 70%
Sea lice [4]; groups given the highest dosage (9.0 mg per day, 7 days)
  reduction of sensitive chalimus and pre-adult stages: > 99%
Sea lice [4]; hexaflumuron groups, 3.0-9.0 mg per day, 7 days
  reduction of sensitive chalimus and pre-adult stages: > 90%
